Laboratory results published in patent US8420692B1, “Heterocyclic and carbonate derivatives of NDGA and their use as new anti-HIV and anti-cancer agents” (The Johns Hopkins University, priority 2006, dated 2013).
pIC50: −log10 of the molar value. Read-outs that look alike come from different tables or passages of the source.

What was measured:
[1] = test system: HIV Tat-regulated transactivation; experiment: cells; assay type: cell-based; settings: for Inhibition (%) of HIV Tat-regulated Transactivation in COS Cells: average of three experiments; for pIC50: read-out: IC50, HIV Tat-regulated transactivation
Method: The COS cells were co-transfected with a Tat-producing plasmid and a plasmid containing the HIV LTR linked to the SeAP reporter gene. Transfected cells were treated with various concentrations of 5b P4N. After 48 h, aliquots of media were removed and analysis of SeAP activity was performed. The percent inhibition of SeAP activity by 5b P4N ? was calculated in comparison with the percent of growth inhibition of untransfected COS cells by P4N ?
The medium used for dilution of compounds and maintenance of cultures during the assay was the same as described above. Cultures were maintained in disposable tissue culture labware at 37° C. in a humidified atmosphere of CO2 (5.0%) in air. Compounds were dissolved as stock solutions in water or dimethyl sulfoxide (DMSO) at the concentration of 10 mM. The stock solutions were diluted with H2O (5a-d) or DMSO (6a,b and 7) and dilute by medium to the desired concentration by a 30-s vortex just before addition into the cell culture. Triplicate cell samples were seeded at density of ˜1.5×10^4 cell per well in Libro 24-well flat-bottom culture dishes (17-mm diameter), which were incubated for 24 h until they reached 50% confluence. The cells were cotransfected by the calcium phosphate procedure with DNA from plasmids pBC12/CMV/t2 (coding for Tat function, 0.20 μg/well) and pBC12/HIV/SeAP (0.40 μg/well). Cells and DNAs were kept in contact for 6.0 h; then the medium was aspirated and replaced by 500 μL of medium containing the test compound. The compound-treated cells were then incubated for additional 48 h. At the end of incubation, an aliquot of cell culture medium was removed and SeAP activities were analyzed by spectrametric method.^20 The sample of culture medium were heated at 65° C. for 5.0 min to inactivate endogenous phosphatases selectively (SeAP is thermal stable). The buffer solution of 2×SeAP (100 μL, 1.0 M diethanolamine, pH 9.8; 0.50 mM MgCl2; 10 mM L-homoarginine) was added to the culture medium sample (100 μL) in a 96-well flat-bottom culture dish (Corning). Then, the substrate solution ([…], 120 mM, p-nitrophenyl phosphate dissolved in 1×SeAP buffer) was dispensed into each well containing the reaction mixture. The absorbance at wavelength 405 nm specific for the hydrolysis product was read at 2.5 min intervals at 37° C. over the course of 60 min on an EL340i microplate reader (Bio-tek Instruments) with 5 s automatic shaking before each reading.
Two plasmid constructs^19 were used to test the effect of synthesized NDGA derivatives on Tat-regulated HIV transactivation as described previously.^12,13,19 The plasmid constructs included a cytomegalovirus (CMV) promoter driven tat gene and SP1 regulated HIV LTR promoter driven reporter gene (i.e., SeAP). A standard SeAP assay in the absence of drug was initially run to find out efficiency of transfection.

[2] = test system: HIV Tat-regulated transactivation; settings: values from references 9 and 12; read-out: IC50, Tat-regulated SeAP production (reference compounds); cited from earlier work
[3] = Stability in aqueous solution (time dependent UV spectra); assay type: physicochemical
Method: FIG. 1: Stability of Two NDGA Derivatives G4N and P4N(HCl salts) in Aqueous Solution. Time Dependent Changes in UV spectra showing (a) G4N is unstable and (b) meso-2,3-dimethyl-1,4-bis(3,4-[2-piperidino)ethoxyphenyl])butane (P4N) (compound 5b in Scheme 1) (day 1, 2, 8, 13, 28) is stable in Milli-Q water after 28 days at 20° C.
The new NDGA derivatives (Scheme 1) were found stable in aqueous solution; >99% of these compounds remained intact after 28 days (see FIG. 1(b)). In a sharp contrast, >96% G4N (4) decomposed in aqueous solution within 24 h (see FIG. 1(a)).

[4] = COS cells, SeAP, mean of triplicate determinations
[5] = Human immunodeficiency virus 1, COS, read-out: Inhibition (%) of HIV Tat-regulated Transactivation in COS Cells

| SMILES | Inhibition (%) of HIV Tat-regulated Transactivation in COS Cells ([1]; 0.10 μM) [%] | Inhibition (%) of HIV Tat-regulated Transactivation in COS Cells ([1]; 0.25 μM) [%] | Inhibition (%) of HIV Tat-regulated Transactivation in COS Cells ([1]; 0.50 μM) [%] | Inhibition (%) of HIV Tat-regulated Transactivation in COS Cells ([1]; 1.0 μM) [%] | Inhibition (%) of HIV Tat-regulated Transactivation in COS Cells ([1]; 2.5 μM) [%] | Inhibition (%) of HIV Tat-regulated Transactivation in COS Cells ([1]; 5.0 μM) | Inhibition (%) of HIV Tat-regulated Transactivation in COS Cells ([1]; 10 μM) | Inhibition (%) of HIV Tat-regulated Transactivation in COS Cells ([1]; 20 μM) [%] | Inhibition (%) of HIV Tat-regulated Transactivation in COS Cells ([1]; 40 μM) [%] | Inhibition (%) of HIV Tat-regulated Transactivation in COS Cells ([1]; 80 μM) [%] | Inhibition (%) of HIV Tat-regulated Transactivation in COS Cells ([1]; 100 μM) [%] | pIC50 [1, 4] | pIC50 [2] | further results |
| --- | --- | --- | --- | --- | --- | --- | --- | --- | --- | --- | --- | --- | --- | --- |
| C[C@H](Cc1ccc(OCCN2CCOCC2)c(OCCN2CCOCC2)c1)[C@@H](C)Cc1ccc(OCCN2CCOCC2)c(OCCN2CCOCC2)c1.Cl.Cl.Cl.Cl [Compound 5c, meso-2,3-Dimethyl-1,4-bis(3,4-[2-(morpholino)ethoxyphenyl])butane Tetrakishydrochloride Salt] | 5.0 | 16.5 | 9.9 | 8.1 | 4.6 | 13.3% | 25.4% | 58.9 | 86.0 | 96.8 | 100 | 4.76 | – | – |
| C[C@H](Cc1ccc(OCCN2CCCC2)c(OCCN2CCCC2)c1)[C@@H](C)Cc1ccc(OCCN2CCCC2)c(OCCN2CCCC2)c1.Cl.Cl.Cl.Cl [Compound 5a, meso-2,3-Dimethyl-1,4-bis(3,4-[2-(pyrrolidino)ethoxyphenyl])butane Tetrakishydrochloride Salt] | 18.1 | 15.4 | 27.2 | 19.6 | 31.0 | 14.1% | 26.3% | 59.1 | 94.8 | 97.1 | 100 | 4.76 | – | – |
| C[C@H](Cc1ccc(OCCCN2CCOCC2)c(OCCCN2CCOCC2)c1)[C@@H](C)Cc1ccc(OCCCN2CCOCC2)c(OCCCN2CCOCC2)c1.Cl.Cl.Cl.Cl [Compound 5d, meso-2,3-Dimethyl-1,4-bis(3,4-[3-(morpholino)propoxyphenyl])butane Tetrakishydrochloride Salt] | 15.0 | 15.9 | 10.6 | 9.5 | 52.7 | 89.5% | 96.0% | 99.9 | 99.8 | 100 | 89.5 | 5.62 | – | – |
| COc1ccc(C[C@@H](C)[C@@H](C)Cc2ccc(OC)c(OC)c2)cc1OC [Compound M4N, (tetra-O-methyl)nordihydroguaiaretic acid] | – | – | – | – | – | – | – | – | – | – | – | – | 4.95 | – |
| C[C@H](Cc1ccc2oc(=O)oc2c1)[C@@H](C)Cc1ccc2oc(=O)oc2c1 [Compound 7, meso-2,3-Dimethyl-1,4-bis(benzo[d][1,3]-dioxol-2-one)butane] | – | – | – | – | – | – | – | – | – | – | – | – | – | pIC50 ([1]; Human immunodeficiency virus 1, COS): 5.07; inhibition at 0.1 µM [1, 5]: 7.5%; inhibition at 0.25 µM [1, 5]: 18.1%; inhibition at 0.5 µM [1, 5]: 4.2%; inhibition at 1 µM [1, 5]: 5.9%; inhibition at 2.5 µM [1, 5]: 23.7%; inhibition at 5 µM [1, 5]: 47.1%; inhibition at 10 µM [1, 5]: 51.2%; inhibition at 20 µM [1, 5]: 68.8%; inhibition at 40 µM [1, 5]: 85.7%; inhibition at 80 µM [1, 5]: 96.3%; inhibition at 100 µM [1, 5]: 91.6%; melting point: 172.6 to 173.4 °C |
| C[C@H](Cc1ccc(OC(=O)CN(C)C)c(OC(=O)CN(C)C)c1)[C@@H](C)Cc1ccc(OC(=O)CN(C)C)c(OC(=O)CN(C)C)c1 [Compound G4N, (tetra-O-dimethylglycyl)nordihydroguaiaretic acid] | – | – | – | – | – | – | – | – | – | – | – | – | – | Stability in Milli-Q water (UV spectra) ([3]; HCl salts, 28 days at 20° C., FIG. 1): unstable; Compound decomposed in aqueous solution ([3]; within 24 h): > 96% |
| C[C@H](Cc1ccc(OC(=O)N2CCCCC2)c(OC(=O)N2CCCCC2)c1)[C@@H](C)Cc1ccc(OC(=O)N2CCCCC2)c(OC(=O)N2CCCCC2)c1 [Compound 6a, meso-2,3-Dimethyl-1,4-bis[3,4-(phenylpiperidine-1-carboxylate)]butane] | 0 | 3.5 | 5.8 | 11.7 | 46.2 | 78.6% | 84.0% | 86.1 | 83.8 | 90.1 | 89.8 | 5.55 | – | – |
| COc1cc(C[C@H](C)[C@H](C)Cc2ccc(O)c(O)c2)ccc1O [Mal.4] | – | – | – | – | – | – | – | – | – | – | – | – | 4.60 | – |
| C[C@H](Cc1ccc(O)c(O)c1)[C@@H](C)Cc1ccc(O)c(O)c1 [NDGA, Nordihydroguaiaretic acid] | – | – | – | – | – | – | – | – | – | – | – | – | 4.70 | – |
| COC(=O)Oc1ccc(C[C@@H](C)[C@@H](C)Cc2ccc(OC(=O)OC)c(OC(=O)OC)c2)cc1OC(=O)OC [Compound 6b, meso-2,3-Dimethyl-1,4-bis[3,4-(methylphenyl carbonate)]butane] | 9.8 | 12.3 | 16.0 | 13.1 | 15.1 | 38,0% | 51,6% | 58.4 | 70.8 | 93.4 | 88.9 | 5.03 | – | – |
